The record followed here is US20170136001A1, “METHOD OF TREATING A VIRAL INFECTION USING ELVITEGRAVIR COMBINATIONS” (priority 2007, published 2017).

Series [1] can be described thus: Study 2: steady-state pharmacokinetic interaction between atazanavir/r and the Compound (85 mg test, 150 mg reference). The format is in vivo, human. An excerpt:
Consideration was given to achieving equivalent Compound exposures in patients receiving and not receiving atazanavir using pharmacokinetic (bio-) equivalence comparisons (Pharsight Corporation, Mountain View, Calif., USA). Consideration was also given to minimizing the number of individuals with extreme outliers in (low or high) exposures.

The nature of series [2]: Example 2: pharmacokinetic interaction, EVG/ATV 300/400 mg versus EVG/r 300/100 mg, with midazolam CYP3A probe. Particulars: midazolam oral syrup 5 mg with last dose; EVG/ATV vs. EVG/r. On the procedure:
This study evaluated the safety and steady-state pharmacokinetics of the co-administered Compound and ATV.
Healthy subjects received EVG/r 300/100 mg or EVG/ATV 300/400 mg in a randomized, crossover manner for 10 days each, with the last dose being coadministered with the CYP3A probe substrate midazolam (oral syrup; 5 mg) and pharmacokinetic (PK) sampling performed. […] ATV, midazolam, and ritonavir pharmacokinetics were also determined for descriptive statistics.

The nature of series [3]: Study 1: steady-state pharmacokinetic interaction between atazanavir/r and the Compound (200 mg). In kind it is in vivo, human. An excerpt: This study evaluated the safety and steady-state pharmacokinetics of the coadministered Compound and ATV/r.

Take `COC(=O)N[C@H](C(=O)N[C@@H](Cc1ccccc1)[C@@H](O)CN(Cc1ccc(-c2ccccn2)cc1)NC(=O)[C@@H](NC(=O)OC)C(C)(C)C)C(C)(C)C` [ATV, 1-[4-(pyridine-2-yl)-phenyl]-4(S)-2,5-bis-[N—(N-methoxycarbonyl-(L)-tert-leucyl)amino]-6-phenyl-2-axahexane]: the “Cmax % GMR (90% CI)” value in series [1] (Study 2, coadministration (the Compound 85 mg + ATV/r 300/100 mg QD) : alone (the Compound reference 150 mg), 14 days, healthy subjects) was found to be 96.0%. For the same compound, the ATV exposures entry in series [1] (with the reduced 85 mg dose of the Compound) was “not affected”.

`Cc1ncc2n1-c1ccc(Cl)cc1C(c1ccccc1F)=NC2` [midazolam]: in series [2], the “midazolam AUCinf geometric mean ratio (90% CI)” value is 89.5 (80.7, 99.3) and the “midazolam Cmax geometric mean ratio (90% CI)” value was 98.8 (89.6, 109).

On to `COc1cc2c(cc1Cc1cccc(Cl)c1F)c(=O)c(C(=O)O)cn2[C@H](CO)C(C)C` [the Compound, 6-(3-chloro-2-fluorobenzyl)-1-[(2S)-1-hydroxy-3-methylbutan-2-yl]-7-methoxy-4-oxo-1,4-dihydroquinoline-3-carboxylic acid], for which, in series [3] (Study 1, coadministration (the Compound 200 mg + ATV/r 300/100 mg QD) : alone, 14 days, healthy subjects), the “AUCtau % GMR (90% CI)” value is 200%. Besides, the “the Compound exposures upon coadministration with ATV/r” value in series [3] (coadministration with ATV/r) was “elevated”. For the same compound, the systemic exposure result in series [1] (85 mg of the Compound with ritonavir-boosted atazanavir compared with the 150 mg dose of the Compound alone) is “equivalent”.
